Assay results taken from patent US20240391931A1 (Bristol-Myers Squibb Company, priority 2021, published 2024).

Tests used:
[1] = target: T1, HER2 wildtype (WT) protein (Homo sapiens, UniProt P04626); assay: HER2 signaling (pHER2 Tyr1248/total HER2 MSD) in BT474 cells; format: cell-based; conditions: 1.5 hr compound, 1% FBS
T1 construct: BT474 and N87 cell lines which endogenously overexpress the HER2 wildtype (WT) protein; endogenous in cells; host or cells: BT474, N87
Method in brief: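 BT474, N87 (HER2 WT) and NCI-H1781 (HER2 G776delinsVC) cells were treated for 1.5 h at 37° C in 1% FBS medium with compound at 0.0005–1.1 μM. pHER2 Tyr1248 was measured by MSD on whole-cell lysates and normalized to total HER2 as % DMSO. EC50 came from a variable-slope sigmoidal fit.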

HER2YVMA = HER2YVMA (Homo sapiens, UniProt P04626, INS775YVMA); assay: HER2 signaling (pHER2) in Hek293-HER2YVMA cells; format: cell-based; parameters: expressed in transfected cells; host or cells: HEK293 (pool), Ba/F3 (clones), BEAS2B (clones); lentiviral vector pCDH-CMV-MCS-EF1-Neo; conditions: 1.5 hr compound, 1% FBS, read-out: HEKYVMA pHER2 EC50
Description: Cell culture, plasmid cloning, and lentiviral transduction were carried out according to standard procedures. The Human HER2 cDNA construct in pCMV6-Entry for the HER2 wildtype (WT) expression was obtained from Origene. The HER2 cDNA including the 12-nucleotide insertion corresponding to YVMA insertion (HER2YVMA) was codon optimized, synthesized and cloned by GenScript (Piscataway, NJ) in pcDNA3.1. The lentiviral constructs expressing HER2YVMA and HER2 WT were sub-cloned using PCR at System Biosciences (SBI, Mountainview, CA) into lentiviral vectors pCDH-CMV-MCS-EF1-Neo and lentiviral particles were generated.
Engineered lines expressing HER2YVMA and HER2 WT were prepared in HEK293 (human embryonic kidney cells), Ba/F3 (Interleukin 3 (IL3)-dependent murine pro B cell line), and BEAS2B (primary immortalized human bronchial epithelial cell line). Ba/F3, BEAS2B, and HEK293 cells were obtained from the American Type Culture Collection (ATCC, Manassas, VA). Parental Ba/F3 cells were grown in suspension in complete RPMI 1640 supplemented with 10% FBS and 1% P/S and 10 ng/ml interleukin 3 (IL3, Sigma-Aldrich). Hek293 and BEAS2B cells were grown as monolayers in DMEM supplemented with 10% FBS and 1% P/S. All cells were maintained and propagated in a humidified 5% CO2 incubator at 37° C.
To generate Ba/F3, BEAS2B, and Hek-293 cells engineered with lentivirus to express HER2 WT or HER2YVMA, the cells were transduced with lentiviruses at multiplicity of infection (MOI) of 1 or 10; transduced cells were selected and maintained with G418 ([…]) (Geneticin, Life Technologies, Carlsbad, CA). Ba/F3 engineered cells were subjected to gradual withdrawal of interleukin 3 (IL-3, Sigma-Aldrich). After selection, IL3 independent Ba/F3 HER2YVMA, and BEAS2B HER2YVMA cells were cloned by limiting dilution. Hek293 HER2YVMA cells were used as pool. HER2 and phospho HER2 levels were confirmed by flow cytometery and immunoassay (MSD, Meso-Scale Discovery, Rockville, Maryland).
HER2 signaling was assessed in BT474 and N87 cell lines which endogenously overexpress the HER2 wildtype (WT) protein, in NCI-H1781 cells which endogenously expresses a HER2 mutant protein containing a VC insertion in the kinase domain (HER2VC or G776delinsVC), and in engineered cell lines transduced to express the Her2 mutant protein containing the YVMA insertion (Hek293-HER2YVMA and BEAS2B-HER2YVMA).
BT474, N87, and NCI-H1781 were plated in 96-well tissue-culture treated plates (Corning Costar, Sigma-Aldrich) in full media and incubated overnight. Hek293-HER2YVMA and BEAS2B-HER2YVMA cells were plated in 96-well poly-D-lysine treated plates (BD Bioscience, San Jose, CA). For treatment with test compounds, the media was replaced with corresponding low serum media (1% FBS) containing test compound at 1.1, 0.37, 0.12, 0.041, 0.014, 0.005, 0.0014, 0.0005 μM or DMSO control (0.1%). Cells were incubated with compound for 1.5 hr at 37° C. After compound treatment, the media was removed and cells were lysed for 30 min on ice in complete MSD lysis buffer (prepared using MSD base lysis buffer (Meso-Scale Discovery) supplemented with cOmplete, EDTA-free Protease inhibitor cocktail (Roche), Phosphatase Inhibitor Cocktails 2 and 3 (Sigma-Aldrich), and 1 mM PMSF (Sigma-Aldrich)). Lysates were stored at −70° C. until further analysis.
HER2 signaling was evaluated using phospho (Tyr1248)/total ErbB2 whole cell lysate MSD plates (Meso-Scale Discovery, Gaithersburg, MD). The phospho HER2 signal was normalized to total HER2 for each sample; results are reported as % DMSO control. The normalized data was fitted using a sigmoidal curve analysis program (Graph Pad Prism version 6) with variable Hill slope to determine EC50 values.
The HER2 signaling results are provided in Table 4, under columns titled “BT474-pHER2 EC50”, “N87-pHER2 EC50”, and “NCI-H1781-pHER2 EC50”. […]

Chain of HER2YVMA (P04626 with tags, fused parts or gaps INS775YVMA): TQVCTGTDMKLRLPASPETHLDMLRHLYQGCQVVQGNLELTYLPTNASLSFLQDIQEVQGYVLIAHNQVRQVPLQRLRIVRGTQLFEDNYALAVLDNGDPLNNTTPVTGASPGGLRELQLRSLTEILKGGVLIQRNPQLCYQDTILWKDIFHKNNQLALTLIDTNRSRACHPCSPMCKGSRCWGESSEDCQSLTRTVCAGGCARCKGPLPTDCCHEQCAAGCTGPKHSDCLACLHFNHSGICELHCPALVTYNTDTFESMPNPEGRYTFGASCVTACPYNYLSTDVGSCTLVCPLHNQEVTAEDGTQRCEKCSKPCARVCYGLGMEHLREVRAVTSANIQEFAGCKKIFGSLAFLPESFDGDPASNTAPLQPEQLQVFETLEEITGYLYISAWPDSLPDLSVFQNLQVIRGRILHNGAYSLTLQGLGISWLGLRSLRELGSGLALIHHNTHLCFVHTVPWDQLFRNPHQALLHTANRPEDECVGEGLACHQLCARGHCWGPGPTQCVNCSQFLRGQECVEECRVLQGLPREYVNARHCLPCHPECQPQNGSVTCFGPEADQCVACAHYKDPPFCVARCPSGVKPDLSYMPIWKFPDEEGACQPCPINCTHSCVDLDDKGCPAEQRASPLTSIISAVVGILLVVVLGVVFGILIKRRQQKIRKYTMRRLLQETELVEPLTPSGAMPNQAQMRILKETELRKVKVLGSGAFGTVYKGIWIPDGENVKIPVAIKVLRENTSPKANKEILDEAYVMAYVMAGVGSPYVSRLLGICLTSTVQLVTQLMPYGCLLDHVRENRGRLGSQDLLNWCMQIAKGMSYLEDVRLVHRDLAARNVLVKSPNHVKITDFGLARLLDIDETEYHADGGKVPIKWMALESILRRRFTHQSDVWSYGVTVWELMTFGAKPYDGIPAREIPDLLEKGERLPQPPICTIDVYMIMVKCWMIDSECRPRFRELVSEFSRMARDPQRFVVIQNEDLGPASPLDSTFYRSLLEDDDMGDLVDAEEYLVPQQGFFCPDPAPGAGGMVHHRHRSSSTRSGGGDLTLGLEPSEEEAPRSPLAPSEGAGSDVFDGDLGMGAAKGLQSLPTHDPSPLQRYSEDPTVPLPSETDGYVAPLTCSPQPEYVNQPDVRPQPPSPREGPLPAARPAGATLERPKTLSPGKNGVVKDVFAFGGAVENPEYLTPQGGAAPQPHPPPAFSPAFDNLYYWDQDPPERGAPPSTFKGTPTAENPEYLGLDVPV
T1 sequence (P04626 23-1255): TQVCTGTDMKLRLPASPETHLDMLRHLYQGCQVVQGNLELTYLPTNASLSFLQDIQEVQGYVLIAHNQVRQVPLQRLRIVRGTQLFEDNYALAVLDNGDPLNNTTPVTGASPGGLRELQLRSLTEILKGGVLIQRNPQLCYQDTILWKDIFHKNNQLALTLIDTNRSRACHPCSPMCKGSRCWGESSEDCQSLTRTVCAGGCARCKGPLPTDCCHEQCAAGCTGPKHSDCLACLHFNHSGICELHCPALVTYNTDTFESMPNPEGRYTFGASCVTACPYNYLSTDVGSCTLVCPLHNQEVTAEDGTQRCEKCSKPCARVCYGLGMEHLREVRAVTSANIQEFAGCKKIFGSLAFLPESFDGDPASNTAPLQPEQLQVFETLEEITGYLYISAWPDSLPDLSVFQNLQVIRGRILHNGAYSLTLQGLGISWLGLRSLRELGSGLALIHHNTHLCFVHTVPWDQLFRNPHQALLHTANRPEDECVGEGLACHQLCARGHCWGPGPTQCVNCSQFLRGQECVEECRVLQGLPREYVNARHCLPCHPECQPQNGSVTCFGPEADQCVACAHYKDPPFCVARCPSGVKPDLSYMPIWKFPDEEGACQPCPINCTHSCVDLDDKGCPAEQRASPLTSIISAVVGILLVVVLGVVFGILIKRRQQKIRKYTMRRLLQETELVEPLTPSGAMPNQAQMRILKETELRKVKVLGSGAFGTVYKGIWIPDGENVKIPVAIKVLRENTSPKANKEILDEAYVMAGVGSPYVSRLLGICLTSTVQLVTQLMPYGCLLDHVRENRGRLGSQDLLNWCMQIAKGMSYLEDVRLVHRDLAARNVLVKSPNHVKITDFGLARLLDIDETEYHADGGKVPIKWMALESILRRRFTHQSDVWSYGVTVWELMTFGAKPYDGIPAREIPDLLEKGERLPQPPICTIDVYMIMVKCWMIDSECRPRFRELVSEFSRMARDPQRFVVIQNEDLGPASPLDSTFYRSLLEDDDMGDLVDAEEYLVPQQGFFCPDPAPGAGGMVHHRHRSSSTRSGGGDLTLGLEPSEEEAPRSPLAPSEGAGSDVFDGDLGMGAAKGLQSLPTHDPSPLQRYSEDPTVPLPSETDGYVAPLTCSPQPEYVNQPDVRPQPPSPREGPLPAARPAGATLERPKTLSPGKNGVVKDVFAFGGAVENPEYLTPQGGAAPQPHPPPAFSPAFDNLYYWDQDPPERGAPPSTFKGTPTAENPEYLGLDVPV

EC50 [1] [nM] | EC50 (HER2YVMA) [nM] | Structure (SMILES)
< 100 | < 100 | COc1ccc(Oc2ccc(Nc3ncnc4sc5c(c34)CN(C(=O)/C=C/CN(C)C)C5)cc2C)cn1 [Compound 128, (E)-4-(dimethylamino)-1-(4-((4-((6-methoxypyridin-3-yl)oxy)-3-methylphenyl)amino)-5,7-dihydro-6H-pyrrolo[3′,4′:4,5]thieno[2,3-d]pyrimidin-6-yl)but-2-en-1-one]
350 to 1000 | 350 to 1000 | Cc1ccc(Oc2ccc(Nc3ncnc4sc5c(c34)CN(C(=O)C=CCN(C)C)C5C)cc2C)cn1 (single isomer, unassigned) [Compound 170]
< 100 | 100 to 350 | Cc1cc(Nc2ncnc3sc4c(c23)CCN(C(=O)/C=C/CN(C)C)CC4)ccc1Oc1ccn2ncnc2c1 [Compound 168]
100 to 350 | 100 to 350 | Cc1ccc(Oc2ccc(Nc3ncnc4sc5c(c34)CCN(C(=O)/C=C/CN3CC(CO)(CO)C3)C5)cc2C)cn1 [Compound 134]
100 to 350 | 100 to 350 | Cc1ccc(Oc2ccc(Nc3ncnc4sc5c(c34)CC(C)N(C(=O)C=CCN(C)C)C5C)cc2C)cn1 (single isomer, unassigned) [Compound 162]
< 100 | < 100 | Cc1ccc(Oc2ccc(Nc3ncnc4sc5c(c34)C(C)CN(C(=O)C=CCN(C)C(C)(C)C)C5)cc2C)cn1 (single isomer, unassigned) [Compound 178]
< 100 | < 100 | Cc1ccc(Oc2ccc(Nc3ncnc4sc5c(c34)CN(C(=O)/C=C/CN(C)C)CC5)cc2C)cn1 [Compound 108, (E)-4-(Dimethylamino)-1-(4-((3-methyl-4-((6-methylpyridin-3-yl)oxy)phenyl)amino)-7,8-dihydropyrido[3′,4′:4,5]thieno[2,3-d]pyrimidin-6(5H)-yl)but-2-en-1-one]
< 100 | < 100 | Cc1ccc(Oc2ccc(Nc3ncnc4sc5c(c34)C(C)CN(C(=O)/C=C/CN(C)C)C5)cc2Cl)cn1 (stereo not drawn) [Compound 171, (E)-1-(4-((3-Chloro-4-((6-methylpyridin-3-yl)oxy)phenyl)amino)-5-methyl-5,6-dihydropyrido[4′,3′:4,5]thieno[2,3-d]pyrimidin-7(8H)-yl)-4-(dimethylamino)but-2-en-1-one]
< 100 | < 100 | Cc1ccc(Oc2ccc(Nc3ncnc4sc5c(c34)CCN(C(=O)/C=C/CN3CC(C)(C)OC(C)(C)C3)C5)cc2C)cn1 [Compound 121]
< 100 | < 100 | Cc1ccc(Oc2ccc(Nc3ncnc4sc5c(c34)CCN(C(=O)/C=C/CN3CCCCC3(C)CO)C5)cc2C)cn1 (stereo not drawn) [Compound 119]
< 100 | 100 to 350 | Cc1cc(Nc2ncnc3sc4c(c23)CN(C(=O)/C=C/CN(C)C)C4)ccc1Oc1ccc2ncnn2c1 [Compound 111, (E)-1-(4-((4-([1,2,4]Triazolo[1,5-a]pyridin-6-yloxy)-3-methylphenyl)amino)-5H-pyrrolo[3′,4′:4,5]thieno[2,3-d]pyrimidin-6(7H)-yl)-4-(dimethylamino)but-2-en-1-one]
< 100 | < 100 | Cc1ccc(Oc2ccc(Nc3ncnc4sc5c(c34)CCN(C(=O)/C=C/CN3CCCC(c4nccs4)C3)C5)cc2C)cn1 (stereo not drawn) [Compound 113]
< 100 | < 100 | COc1ccc(Oc2ccc(Nc3ncnc4sc5c(c34)CCN(C(=O)/C=C/CN3CCOCC3)C5)cc2C)cn1 [Compound 164]
< 100 | < 100 | Cc1ccc(Oc2ccc(Nc3ncnc4sc5c(c34)CCN(C(=O)/C=C/CN3CCCC34CCC4)C5)cc2C)cn1 [Compound 115]
< 100 | 100 to 350 | Cc1ccc(Oc2ccc(Nc3ncnc4sc5c(c34)CCN(C(=O)/C=C/CN(C)C)CC5)cc2Cl)cn1 [Compound 167, (E)-1-(4-((3-Chloro-4-((6-methylpyridin-3-yl)oxy)phenyl)amino)-8,9-dihydro-5H-pyrimido[5′,4′:4,5]thieno[2,3-d]azepin-7(6H)-yl)-4-(dimethylamino)but-2-en-1-one]
< 100 | < 100 | Cc1ccc(Oc2ccc(Nc3ncnc4sc5c(c34)C(C)N(C(=O)/C=C/CN(C)C)C5)cc2C)cn1 (stereo not drawn) [Compound 141, (E)-4-(dimethylamino)-1-(5-methyl-4-((3-methyl-4-((6-methylpyridin-3-yl)oxy)phenyl)amino)-5,7-dihydro-6H-pyrrolo[3′,4′:4,5]thieno[2,3-d]pyrimidin-6-yl)but-2-en-1-one]
< 100 | < 100 | Cc1cc(Nc2ncnc3sc4c(c23)CCN(C(=O)/C=C/CN(C)C)C4)ccc1Oc1ccc2scnc2c1 [Compound 107, (E)-1-(4-((4-(benzo[d]thiazol-5-yloxy)-3-methylphenyl)amino)-5,8-dihydropyrido[4′,3′:4,5]thieno[2,3-d]pyrimidin-7(6H)-yl)-4-(dimethylamino)but-2-en-1-one]

Structure (SMILES) | EC50 [1] [nM] | EC50 (HER2YVMA) [nM]
Cc1cn2ccc(Oc3ccc(Nc4ncnc5sc6c(c45)CCN(C(=O)/C=C/CN(C)C)C6)cc3C)cc2n1 [Compound 110, (E)-4-(dimethylamino)-1-(4-((3-methyl-4-((2-methylimidazo[1,2-a]pyridin-7-yl)oxy)phenyl)amino)-5,8-dihydropyrido[4′,3′:4,5]thieno[2,3-d]pyrimidin-7(6H)-yl)but-2-en-1-one] | < 100 | 100 to 350
Cc1cc(Nc2ncnc3sc4c(c23)CCN(C(=O)/C=C/CN(C)C)C4)ccc1Oc1ccn2ccnc2c1 [Compound 126, (E)-4-(dimethylamino)-1-(4-((4-(imidazo[1,2-a]pyridin-7-yloxy)-3-methylphenyl)amino)-5,8-dihydropyrido[4′,3′:4,5]thieno[2,3-d]pyrimidin-7(6H)-yl)but-2-en-1-one] | < 100 | < 100
Cc1ccc(Oc2ccc(Nc3ncnc4sc5c(c34)CCN(C(=O)/C=C/CN(C)C)C5)cc2C)cn1 [Compound 8, (E)-4-(Dimethylamino)-1-(4-((3-methyl-4-((6-methylpyridin-3-yl)oxy)phenyl)amino)-5,6-dihydropyrido[4′,3′:4,5]thieno[2,3-d]pyrimidin-7(8H)-yl)but-2-en-1-one] | < 100 | < 100
C=CC(=O)N1Cc2sc3ncnc(Nc4ccc(Oc5ccc(C)nc5)c(C)c4)c3c2C(C)C1 (stereo not drawn) [Compound 142, 1-(5-methyl-4-((3-methyl-4-((6-methylpyridin-3-yl)oxy)phenyl)amino)-5,6-dihydropyrido[4′,3′:4,5]thieno[2,3-d]pyrimidin-7(8H)-yl)prop-2-en-1-one] | < 100 | < 100
